Square brackets hold non-standard residues; d marks the D form. Peptide text beside a SMILES is read from it. Ac6c = NC1(C(=O)O)CCCCC1
Key:
S. aureus DnaK [1] = molecular target: T1, S. aureus DnaK (Staphylococcus aureus, UniProt P99110); test: FP peptide binding screening against Cf-ARV-1502; conditions: screening: DnaK 16 µmol/L, unlabeled peptide 35 µmol/L, duplicate, below 1 = better than ARV-1502
T1 construct: His6-tag with TEV site ([…]) (N, cleaved yes); made in house; host or cells: E. coli (DE3) Rosetta pLysS
T1 sequence (P99110 whole entry): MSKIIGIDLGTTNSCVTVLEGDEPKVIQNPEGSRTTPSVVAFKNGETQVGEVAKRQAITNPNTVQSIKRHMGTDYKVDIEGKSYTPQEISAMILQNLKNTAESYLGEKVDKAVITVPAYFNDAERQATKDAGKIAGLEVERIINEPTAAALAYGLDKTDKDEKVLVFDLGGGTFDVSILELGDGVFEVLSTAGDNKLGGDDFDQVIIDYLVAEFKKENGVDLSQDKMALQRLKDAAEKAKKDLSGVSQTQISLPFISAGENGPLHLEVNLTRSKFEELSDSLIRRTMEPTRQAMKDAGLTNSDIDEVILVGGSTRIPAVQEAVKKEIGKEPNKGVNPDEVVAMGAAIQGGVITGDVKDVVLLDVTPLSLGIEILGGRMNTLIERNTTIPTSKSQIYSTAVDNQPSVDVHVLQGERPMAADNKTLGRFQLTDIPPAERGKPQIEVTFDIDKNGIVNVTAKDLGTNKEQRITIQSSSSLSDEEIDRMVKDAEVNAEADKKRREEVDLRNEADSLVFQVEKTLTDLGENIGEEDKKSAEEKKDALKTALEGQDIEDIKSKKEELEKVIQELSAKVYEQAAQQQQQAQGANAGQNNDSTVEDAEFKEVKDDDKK

E. coli DnaK [2] = molecular target: T2, E. coli DnaK (Escherichia coli, UniProt P0A6Y8); format: binding
T2 construct: His6-tag with TEV site ([…]) (N, cleaved yes); made in house; host or cells: E. coli (DE3) Rosetta pLysS
T2 sequence (P0A6Y8 whole entry): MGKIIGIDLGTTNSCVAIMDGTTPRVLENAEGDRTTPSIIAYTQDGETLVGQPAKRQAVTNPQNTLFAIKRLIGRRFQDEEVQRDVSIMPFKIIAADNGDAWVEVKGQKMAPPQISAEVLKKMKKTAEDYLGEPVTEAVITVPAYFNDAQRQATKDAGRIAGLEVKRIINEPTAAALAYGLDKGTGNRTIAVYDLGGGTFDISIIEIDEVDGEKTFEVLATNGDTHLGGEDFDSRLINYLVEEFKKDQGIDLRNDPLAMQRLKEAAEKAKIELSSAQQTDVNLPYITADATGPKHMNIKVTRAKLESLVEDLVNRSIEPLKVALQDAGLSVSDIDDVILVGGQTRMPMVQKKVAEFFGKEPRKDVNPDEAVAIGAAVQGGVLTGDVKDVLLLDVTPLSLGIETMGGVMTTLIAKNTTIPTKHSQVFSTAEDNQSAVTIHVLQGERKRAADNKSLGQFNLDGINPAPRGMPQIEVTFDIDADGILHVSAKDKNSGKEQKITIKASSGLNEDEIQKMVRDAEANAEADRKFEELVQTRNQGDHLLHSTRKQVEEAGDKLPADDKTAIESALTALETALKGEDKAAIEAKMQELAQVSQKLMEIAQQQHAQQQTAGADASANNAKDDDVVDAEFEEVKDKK
Description: The plate was incubated (90 min, 28°C, dark) and Cf-ARV-1502 (80 nmol/L; 10 µL/well) added. […] Each peptide was screened in duplicate. Control samples either lacked the unlabeled peptide (maximum) or contained Cf-ARV-1502 in buffer (minimum).
(§1) The quality of the experimental set up was evaluated by the Z′ factor ([Zhang et al., 1999]) (Supplementary Table S2). […] The obtained FP-values were normalized to the FP-values determined for lead sequence ARV-1502.

[3] = system: E. coli DnaK/DnaJ/GrpE-chaperone system; test: ATPase activity assay (malachite green), chaperone system; format: biochemical, Escherichia coli; conditions: peptide screen, 0.3 mmol/L peptide; for ATPase activity of the E. coli DnaK/DnaJ/GrpE system, normalized to activity without peptide (100%): 37°C, 2 h, triplicates
Description: (§2) ATPase activity of E. coli and S. aureus chaperones was studied in the presence of an AMP using a 384-well plate colorimetric assay ([Chang et al., 2008]; [Zahn et al., 2013]). […] The chaperone mix (13.5 µL) was incubated with an aqueous peptide solution (1.5 µL; final concentration 0.3 mmol/L) at 37°C for 30 min in a non-binding 384-well plate (flat bottom, Greiner Bio-One GmbH). Each sample was prepared in triplicates on the same plate. The reaction was started by addition of ATP dissolved in assay buffer (5 µL, 4 mmol/L) and the plate centrifuged (500 × g, 2 min; Allegra™ 21R, Beckmann Coulter, Krefeld, Germany) before incubated (37°C, 2 h). The released phosphate was quantified using an external phosphate dilution series (10–200 µmol/L KH2PO4 in assay buffer) prepared on each plate and treated equally as the samples. The reaction was stopped by adding assay buffer (80 µL) to all samples except the phosphate dilution series. Aliquots of all samples (10 µL) were transferred to a clear 384-well plate (flat bottom, Greiner Bio-One GmbH) and malachite green reagent added (90 µL; mixture of malachite green in water (0.04%, w/v), ammonium molybdate (2%, w/w) in aqueous sulfuric acid (3.5 mol/L), and water at a ratio of 1:1:3.6, v/v/v). After 15 min, the absorbance was recorded at 620 nm on the […]™ microplate reader. The phosphate standard curve was fitted by a hyperbolic equation y = (ax)/(b + x) + c.

[4] = system: S. aureus DnaK/DnaJ/GrpE-chaperone system; test: as above; format: biochemical, Staphylococcus aureus; conditions: peptide screen, 0.3 mmol/L peptide; for ATPase activity of the S. aureus DnaK/DnaJ/GrpE system, normalized to activity without peptide (100%): 37°C, 2 h, triplicates
Description: as §2

S. aureus DnaK [5] = molecular target: T1, S. aureus DnaK; test: Competitive fluorescence polarization Ki; format: binding; conditions: unlabeled peptide competing with Cf-labeled peptide; DnaK 16 µmol/L; 90 + 90 min, 28°C
Description: as §1

E. coli DnaK [6] = molecular target: T2, E. coli DnaK; test: Competitive fluorescence polarization Ki; format: binding; conditions: unlabeled peptide competing with Cf-labeled peptide; DnaK 5 µmol/L; 90 + 90 min, 28°C
Description: as §1

Molecule	binding to S. aureus DnaK, FP-value normalized to ARV-1502 (S. aureus DnaK [1])	binding to E. coli DnaK, FP-value normalized to ARV-1502 (E. coli DnaK [2])	also measured
Chex-RPFFPRPYLPSPRPPRPVR-NH2 [compound 101, substituted analog of ARV-1502]	best binders	best binders	
Chex-RPDKPRPSLDRPRPPRPVR-NH2 [compound 128, substituted analog of ARV-1502]			ATPase activity of the E. coli DnaK/DnaJ/GrpE system, normalized to activity without peptide (100%) [3]: below 60%
Chex-RPDKPRPYSPLPRPPRPVR-NH2 [compound 172, substituted analog of ARV-1502]	best binders		
Chex-RPDKPRPKSPRPRPPRPVR-NH2 [compound 122, substituted analog of ARV-1502]	bound neither	bound neither	
Chex-RPDDPRPDLPRPRPPRPVR-NH2 [compound 53, substituted analog of ARV-1502]			increase of ATPase activity, S. aureus chaperone system [4]: ≥ 60%
Chex-RPDDPRPYLPRDRPPRPVR-NH2 [compound 68, substituted analog of ARV-1502]			decrease of ATPase activity, E. coli chaperone system [3]: 50%
CC(C)C[C@H](NC(=O)[C@H](CO)NC(=O)[C@@H]1CCCN1C(=O)[C@H](CCCNC(=N)N)NC(=O)[C@@H]1CCCN1C(=O)[C@H](CCCCN)NC(=O)[C@H](CC(=O)O)NC(=O)[C@@H]1CCCN1C(=O)[C@H](CCCNC(=N)N)NC(=O)C1(N)CCCCC1)C(=O)N1CCC[C@H]1C(=O)N[C@@H](Cc1ccccc1)C(=O)N1CCC[C@H]1C(=O)N[C@@H](CCCNC(=N)N)C(=O)N1CCC[C@H]1C(=O)N1CCC[C@H]1C(=O)N[C@@H](CCCNC(=N)N)C(=O)N1CCC[C@H]1C(=O)N[C@H](C(=O)N[C@@H](CCCNC(=N)N)C(N)=O)C(C)C [compound 130] (H-[Ac6c]RPDKPRPSLPFPRPPRPVR-NH2)			Ki (S. aureus DnaK [5]): 8.46 µM
Chex-RPDKPRPYSPDPRPPRPVR-NH2 [compound 170, substituted analog of ARV-1502]	best binders		
Chex-RPDKPRPYKPDPRPPRPVR-NH2 [compound 160, substituted analog of ARV-1502]	best binders		
Chex-RPFFPRPYLPRSRPPRPVR-NH2 [compound 106, substituted analog of ARV-1502]	best binders	best binders	
CC(C)C[C@H](NC(=O)[C@H](Cc1ccc(O)cc1)NC(=O)[C@@H]1CCCN1C(=O)[C@H](CCCNC(=N)N)NC(=O)[C@@H]1CCCN1C(=O)[C@H](CCCCN)NC(=O)[C@H](CCCCN)NC(=O)[C@@H]1CCCN1C(=O)[C@H](CCCNC(=N)N)NC(=O)C1(N)CCCCC1)C(=O)N1CCC[C@H]1C(=O)N[C@@H](CCCNC(=N)N)C(=O)N1CCC[C@H]1C(=O)N[C@@H](CCCNC(=N)N)C(=O)N1CCC[C@H]1C(=O)N1CCC[C@H]1C(=O)N[C@@H](CCCNC(=N)N)C(=O)N1CCC[C@H]1C(=O)N[C@H](C(=O)N[C@@H](CCCNC(=N)N)C(N)=O)C(C)C [peptide 2] (H-[Ac6c]RPKKPRPYLPRPRPPRPVR-NH2)			Ki (E. coli DnaK [6]): 600 nM
Chex-RPDKPRPSLPRSRPPRPVR-NH2 [compound 133, substituted analog of ARV-1502]	best binders		
Chex-RPDKPRPDKPRPRPPRPVR-NH2 [compound 108, substituted analog of ARV-1502]	bound neither	bound neither	
Chex-RPDKPRPDLPRSRPPRPVR-NH2 [compound 119, substituted analog of ARV-1502]			ATPase activity of the S. aureus DnaK/DnaJ/GrpE system, normalized to activity without peptide (100%) [4]: more than 160%
Chex-RPDDPRPYLPLPRPPRPVR-NH2 [compound 66, substituted analog of ARV-1502]			decrease of ATPase activity, E. coli chaperone system [3]: at least 40%; ATPase activity of the E. coli DnaK/DnaJ/GrpE system, normalized to activity without peptide (100%) [3]: below 60%
Chex-RPDDPRPKLPRPRPPRPVR-NH2 [compound 54, substituted analog of ARV-1502]	best binders		
Chex-RPSSPRPYLPSPRPPRPVR-NH2 [compound 83, substituted analog of ARV-1502]			ATPase activity of the S. aureus DnaK/DnaJ/GrpE system, normalized to activity without peptide (100%) [4]: more than 160%
Chex-RPFFPRPKLPRPRPPRPVR-NH2 [compound 90, substituted analog of ARV-1502]	best binders	best binders	
Chex-RPFFPRPSLPRPRPPRPVR-NH2 [compound 91, substituted analog of ARV-1502]	best binders	best binders	
Chex-RPDKPRPDDPRPRPPRPVR-NH2 [compound 107, substituted analog of ARV-1502]			increase of ATPase activity, S. aureus chaperone system [4]: ≥ 60%
CC(C)C[C@H](NC(=O)[C@H](Cc1ccc(O)cc1)NC(=O)[C@@H]1CCCN1C(=O)[C@H](CCCNC(=N)N)NC(=O)[C@@H]1CCCN1C(=O)[C@H](Cc1ccccc1)NC(=O)[C@H](Cc1ccccc1)NC(=O)[C@@H]1CCCN1C(=O)[C@H](CCCNC(=N)N)NC(=O)C1(N)CCCCC1)C(=O)N[C@@H](CO)C(=O)N[C@@H](CCCNC(=N)N)C(=O)N1CCC[C@H]1C(=O)N[C@@H](CCCNC(=N)N)C(=O)N1CCC[C@H]1C(=O)N1CCC[C@H]1C(=O)N[C@@H](CCCNC(=N)N)C(=O)N1CCC[C@H]1C(=O)N[C@H](C(=O)N[C@@H](CCCNC(=N)N)C(N)=O)C(C)C [compound 99] (H-[Ac6c]RPFFPRPYLSRPRPPRPVR-NH2)	best binders	best binders	DnaK binding in the screening, in words (E. coli DnaK [2]; FP screening, DnaK variant not stated at the place): best binding
CC(C)C[C@H](NC(=O)[C@H](Cc1ccc(O)cc1)NC(=O)[C@@H]1CCCN1C(=O)[C@H](CCCNC(=N)N)NC(=O)[C@@H]1CCCN1C(=O)[C@H](Cc1ccccc1)NC(=O)[C@H](Cc1ccccc1)NC(=O)[C@@H]1CCCN1C(=O)[C@H](CCCNC(=N)N)NC(=O)C1(N)CCCCC1)C(=O)N1CCC[C@H]1C(=O)N[C@@H](CCCNC(=N)N)C(=O)N[C@@H](CCCCN)C(=O)N[C@@H](CCCNC(=N)N)C(=O)N1CCC[C@H]1C(=O)N1CCC[C@H]1C(=O)N[C@@H](CCCNC(=N)N)C(=O)N1CCC[C@H]1C(=O)N[C@H](C(=O)N[C@@H](CCCNC(=N)N)C(N)=O)C(C)C [peptide 105] (H-[Ac6c]RPFFPRPYLPRKRPPRPVR-NH2)	best binders	best binders	
Chex-RPDKPRPDLPRDRPPRPVR-NH2 [compound 117, substituted analog of ARV-1502]			ATPase activity of the E. coli DnaK/DnaJ/GrpE system, normalized to activity without peptide (100%) [3]: below 60%; increase of ATPase activity, S. aureus chaperone system [4]: ≥ 60%

From publication PMC8864165, “Functional Effects of ARV-1502 Analogs Against Bacterial Hsp70 and Implications for Antimicrobial Activity” (Frontiers in Chemistry, 2022)
